The text below walks through data of patent US11702666B2, “Cell-based assay for determining activity in the retinoblastoma pathway” (Medical Diagnostic Laboratories, LLC, priority 2017, dated 2023).

“Also recorded” adds a separate entry of the source.

The chains are these.
B1: Rb R798W: Rb mutant from COSMIC database (protein, UniProt P06400 2-928, looked up, variant R798W)
Retinoblastoma-associated …: PPKTPRKTAATAAAAAAEPPAPPPPPPPEEDPEQDSGPEDLPLVRLEFEETEEPDFTALCQKLKIPDHVRERAWLTWEKVSSVDGVLGGYIQKKKELWGICIFIAAVDLDEMSFTFTELQKNIEISVHKFFNLLKEIDTSTKVDNAMSRLLKKYDVLFALFSKLERTCELIYLTQPSSSISTEINSALVLKVSWITFLLAKGEVLQMEDDLVISFQLMLCVLDYFIKLSPPMLLKEPYKTAVIPINGSPRTPRRGQNRSARIAKQLENDTRIIEVLCKEHECNIDEVKNVYFKNFIPFMNSLGLVTSNGLPEVENLSKRYEEIYLKNKDLDARLFLDHDKTLQTDSIDSFETQRTPRKSNLDEEVNVIPPHTPVRTVMNTIQQLMMILNSASDQPSENLISYFNNCTVNPKESILKRVKDIGYIFKEKFAKAVGQGCVEIGSQRYKLGVRLYYRVMESMLKSEEERLSIQNFSKLLNDNIFHMSLLACALEVVMATYSRSTSQNLDSGTDLSFPWILNVLNLKAFDFYKVIESFIKAEGNLTREMIKHLERCEHRIMESLAWLSDSPLFDLIKQSKDREGPTDHLESACPLNLPLQNNHTAADMYLSPVRSPKKKGSTTRVNSTANAETQATSAFQTQKPLKSTSLSLFYKKVYRLAYLRLNTLCERLLSEHPELEHIIWTLFQHTLQNEYELMRDRHLDQIMMCSMYGICKVKNIDLKFKIIVTAYKDLPHAVQETFKRVLIKEEEYDSIIVFYNSVFMQRLKTNILQYASTRPPTLSPIPHIPRSPYKFPSSPLWIPGGNIYISPLKSPYKISEGLPTPTKMTPRSRILVSIGESFGTSEKFQKINQMVCNSDRVLKRSAEGSNPPKPLKKLRFDIEGSDEADGSKHLPGESKFQQKLAEMTSTRTRMQKQKMNDSMDTSNKEEK
B2: Rb R798Q: Rb mutant from COSMIC database (protein, UniProt P06400 2-928, looked up, variant R798Q)
Retinoblastoma-associated …: PPKTPRKTAATAAAAAAEPPAPPPPPPPEEDPEQDSGPEDLPLVRLEFEETEEPDFTALCQKLKIPDHVRERAWLTWEKVSSVDGVLGGYIQKKKELWGICIFIAAVDLDEMSFTFTELQKNIEISVHKFFNLLKEIDTSTKVDNAMSRLLKKYDVLFALFSKLERTCELIYLTQPSSSISTEINSALVLKVSWITFLLAKGEVLQMEDDLVISFQLMLCVLDYFIKLSPPMLLKEPYKTAVIPINGSPRTPRRGQNRSARIAKQLENDTRIIEVLCKEHECNIDEVKNVYFKNFIPFMNSLGLVTSNGLPEVENLSKRYEEIYLKNKDLDARLFLDHDKTLQTDSIDSFETQRTPRKSNLDEEVNVIPPHTPVRTVMNTIQQLMMILNSASDQPSENLISYFNNCTVNPKESILKRVKDIGYIFKEKFAKAVGQGCVEIGSQRYKLGVRLYYRVMESMLKSEEERLSIQNFSKLLNDNIFHMSLLACALEVVMATYSRSTSQNLDSGTDLSFPWILNVLNLKAFDFYKVIESFIKAEGNLTREMIKHLERCEHRIMESLAWLSDSPLFDLIKQSKDREGPTDHLESACPLNLPLQNNHTAADMYLSPVRSPKKKGSTTRVNSTANAETQATSAFQTQKPLKSTSLSLFYKKVYRLAYLRLNTLCERLLSEHPELEHIIWTLFQHTLQNEYELMRDRHLDQIMMCSMYGICKVKNIDLKFKIIVTAYKDLPHAVQETFKRVLIKEEEYDSIIVFYNSVFMQRLKTNILQYASTRPPTLSPIPHIPRSPYKFPSSPLQIPGGNIYISPLKSPYKISEGLPTPTKMTPRSRILVSIGESFGTSEKFQKINQMVCNSDRVLKRSAEGSNPPKPLKKLRFDIEGSDEADGSKHLPGESKFQQKLAEMTSTRTRMQKQKMNDSMDTSNKEEK
B3: p16 A20P: p16 (CDKN2A) mutant (protein)
chain: MEPAAGSSMEPSADWLATAPARGRVEEVRALLEAGALPNAPNSYGRRPIQVMMMGSARVAELLLLHGAEPNCADPATLTRPVHDAAREGFLDTLVVLHRAGARLDVRDAWGRLPVDLAEELGHRDVARYLRAAAGGTRGSNHARIDAAEGPSDIPD
B4: p16 V126D: p16 (CDKN2A) mutant (protein)
chain: MEPAAGSSMEPSADWLATAAARGRVEEVRALLEAGALPNAPNSYGRRPIQVMMMGSARVAELLLLHGAEPNCADPATLTRPVHDAAREGFLDTLVVLHRAGARLDVRDAWGRLPVDLAEELGHRDDARYLRAAAGGTRGSNHARIDAAEGPSDIPD

E2F1/Dp-1 heterodimer, sequence (Q01094 58-437 limits assumed): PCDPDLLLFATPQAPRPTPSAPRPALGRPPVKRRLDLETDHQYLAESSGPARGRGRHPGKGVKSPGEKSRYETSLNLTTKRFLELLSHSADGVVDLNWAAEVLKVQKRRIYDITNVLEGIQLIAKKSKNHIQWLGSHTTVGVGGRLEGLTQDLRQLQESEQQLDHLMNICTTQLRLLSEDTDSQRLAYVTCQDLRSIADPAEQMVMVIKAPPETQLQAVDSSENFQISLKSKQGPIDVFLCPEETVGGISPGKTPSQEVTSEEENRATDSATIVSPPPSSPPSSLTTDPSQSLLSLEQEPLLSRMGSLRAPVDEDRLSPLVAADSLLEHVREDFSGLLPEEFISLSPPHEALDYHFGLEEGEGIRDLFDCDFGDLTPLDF
E2F1/Dp-1 heterodimer, sequence (Q14186 whole entry, further chain): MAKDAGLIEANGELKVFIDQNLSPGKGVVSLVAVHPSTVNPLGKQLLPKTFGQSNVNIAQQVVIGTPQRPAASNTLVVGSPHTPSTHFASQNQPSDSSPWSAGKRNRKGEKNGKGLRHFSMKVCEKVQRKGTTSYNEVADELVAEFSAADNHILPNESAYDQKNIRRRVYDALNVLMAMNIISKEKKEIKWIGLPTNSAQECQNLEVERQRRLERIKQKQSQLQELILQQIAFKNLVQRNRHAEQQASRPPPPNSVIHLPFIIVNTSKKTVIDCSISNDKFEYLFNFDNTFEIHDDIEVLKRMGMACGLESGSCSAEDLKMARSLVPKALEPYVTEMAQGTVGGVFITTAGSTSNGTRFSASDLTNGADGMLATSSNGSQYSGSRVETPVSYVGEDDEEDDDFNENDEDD
T1 sequence (P11802 2-303): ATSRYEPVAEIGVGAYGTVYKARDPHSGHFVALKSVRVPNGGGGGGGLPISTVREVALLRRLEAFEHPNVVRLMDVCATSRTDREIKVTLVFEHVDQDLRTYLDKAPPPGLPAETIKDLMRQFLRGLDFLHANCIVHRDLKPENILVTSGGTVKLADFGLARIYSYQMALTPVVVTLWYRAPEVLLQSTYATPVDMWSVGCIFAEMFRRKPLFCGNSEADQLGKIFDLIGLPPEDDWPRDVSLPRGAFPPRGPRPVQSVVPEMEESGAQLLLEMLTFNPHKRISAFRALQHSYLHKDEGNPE

The subject of one assay is Rb/E2F1-Dp-1 complex. Briefly: CDK6 mutant activity / drug resistance in NanoBiT assay, stable cell line #11. The following applies: CDK6 mutants, compared to the WT (being 100%). The format is cell-based, human. As to the method:
A linear expression cassette of mutated CDK4 or CDK6 was generated by PCR mediated overlapping extension method. A pair of forward and reverse primers containing the targeted mutations was designed. The mutated codon was located in the middle of a primer flanked by 18-21 nucleotides on each side. Two PCRs (named as PCR #1 and PCR #2 in FIG. 1) were performed using UF-CMV forward and mutated reverse primers, or mutated forward and BGH-UR primers. The PCR products were cleaned up by ExoSAP-IT® (Affymetrix) to remove unconsumed dNTPs and primers. The treated PCR products were mixed together followed by dilution with water. A second round of PCR was performed using the diluted PCR mixture, and the UF and UR primers (FIG. 1). The amplified products were gel-purified. The DNA concentration was quantitated by the optical density at 260 nm using Nanodrop. The targeted mutations were incorporated in the CDK4 or CDK6 genes during the PCR mediated overlapping extension method. The introduced mutations were confirmed by the DNA sequencing.
To examine the ability of the assay to detect variants in CDK4 or CDK6 that affect function, kinase dead mutants and COSMIC (Catalogue Of Somatic Mutations in cancer) unknown mutants were created. For comparison, hyperactive CDK4 or CDK6 mutants known to be hyperactive due to less binding to natural inhibitor p16 were also created. The mutations in CDK4 or CDK6 were created by site-directed mutagenesis. WT or mutated CDK4 or CDK6 along with the CyclinD1 and SB-Rb were co-transfected, under similar conditions as previously indicated (see FIG. 9).
Computer modeling was used to reveal the drug-binding pocket and predict drug-resistant mutants. The mutations in CDK4 and CDK6 were created by site-directed mutagenesis. WT or mutated CDK4 or CDK6 along with the CyclinD1 and SB-Rb was co-transfected into #11 cell line, under the same conditions as previously indicated. […] Dose response curves are presented on FIG. 13A and FIG. 13B. Activity of other mutants was very similar to the WT or KD.
CDK4 and CDK6 mutants with known function and unknown function taken from the COSMIC database were analyzed in the present assay and are summarized in Table 7A and Table 7B. The mutants were classified according to their activity. Table 7A and Table 7B also show the number of counts per mutant in the COSMIC database, type of cancer, and luciferase activity compared to the WT (being 100%).
Turning to “CDK6 D163N: CDK6 mutant, literature kinase dead”, the “Luc activity (/wt)” value is listed as 408%.

“CDK6 R220S: CDK6 mutant from COSMIC database”: the “Luc activity (/wt)” value came out at 271%.

On to “CDK6 R144H: CDK6 mutant from COSMIC database”, for which the “Luc activity (/wt)” value is 267%.

In the case of “CDK6 P199L: CDK6 mutant from COSMIC database”, the “Luc activity (/wt)” value turned out to be 565%.

In the case of “CDK6 R220C: CDK6 mutant from COSMIC database”, the “Luc activity (/wt)” value is listed as 164%.

On to “CDK6 K43M: CDK6 mutant, literature kinase dead”, for which the “Luc activity (/wt)” value is 468%.

Still in this assay, the particulars now being: predicted drug resistant CDK6 mutants, relative to WT.
Consider “CDK6 I19L: predicted drug resistant CDK6 mutant”, for which the Luc. activity (/wt) was 129%.

As to “CDK6 V27A: predicted drug resistant CDK6 mutant”, the Luc. activity (/wt) was 149%.

For “CDK6 D104N: predicted drug resistant CDK6 mutant”, the Luc. activity (/wt) was 138%.

With “CDK6 F98I: predicted drug resistant CDK6 mutant”, the Luc. activity (/wt) was 176%.

On to “CDK6 A41V: predicted drug resistant CDK6 mutant”, for which the Luc. activity (/wt) is 132%.

Turning to “CDK6 H100Y: predicted drug resistant CDK6 mutant”, the Luc. activity (/wt) is 126%.

Regarding “CDK6 L152V: predicted drug resistant CDK6 mutant”, the Luc. activity (/wt) is 114%.

Take “CDK6 T107K: predicted drug resistant CDK6 mutant”: the Luc. activity (/wt) was 95%.

The assay is the same for the next values; noted with them: predicted drug resistant CDK6 mutants; Palbociclib/Ribociclib.
Regarding “CDK6 T107K: predicted drug resistant CDK6 mutant”, the Observed drug resist. entry is “showed drug resistance; also recorded: Resistant”.

Another assay relates to E2F1/Dp-1 heterodimer. Briefly: Rb activity assay (LB-Rb with E2F1-SB, DP1 split luciferase). The format is cell-based, human. Also noted: key to Observed activity: N—no activity; A—active as WT; R—reduced activity compared to the WT. The following applies: Rb mutants. The method in brief:
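HEK293 CDK DKO clone stably expressing E2F1-SB and Dp-1, transiently transfected with LB-Rb (70 ng DNA, 0.2×10^6 cells/ml). NanoBiT split-luciferase complementation from Rb–E2F1 binding read as luminescence (RLU) after NanoGlo substrate; triplicates, mean±SD.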
For B1, the Observed activity entry was “A”.

For the molecule B2, the Observed activity entry is on record as “A”.

Staying with this assay, now noted: Rb mutants, activity relative to WT.
As to B1, the “% (/wt)” value was found to be 120%.

With B2, the “% (/wt)” value is on record as 92%.

The next assay addresses T1, CDK4 (Homo sapiens, UniProt P11802).
T1 construct: expressed in transfected cells; host or cells: HEK293 CDK4/CDK6 double-knockout cells stably expressing E2F1-Dp-1-LB (clone #11); early experiments in plain HEK293
In words: p16 activity assay with CDK4 (NanoBiT, cell line #11). The following applies: loss of function mutants. The format is cell-based. The text has this: We developed an assay that could measure the interaction between Rb, E2F1 and Dp-1. When the Rb and E2F1 proteins are in close proximity or in complex, a light signal is observed. For the purpose of the assay, split-luciferase complementation was used to measure the interaction between Rb and E2F1, which served as a surrogate measure of CDK4/6 activity and the ability of CDK4/6 to respond to the natural inhibitor p16. The NanoBiT assay system by Promega (Madison, Wis.; Dixon et al., 2015, ACS ChemBiol) was used in the split luciferase complementation design. FIG. 24 depicts a design of a signal system to measure p16 activity. Under basal conditions inside the cell, Rb is active and interacts with the E2F1/Dp-1 heterodimer. However, in the presence of the CDK4 or CDK6, Rb gets phosphorylated and released from the interacting complex. In the presence of the natural inhibitor p16, CDK4/6 is no longer available to phosphorylate Rb and thus promoting the Rb/E2F1-Dp-1 complex formation.
For the purpose of the current assay, the stable cell line #11 that we generated for the CDK activity assay was used and described above. HEK293 CDK DKO cells containing E2F1-Dp-1-LB was transiently transfected with CDK4/CDK6, CyclinD1, and SB-Rb. The transfected cells were then exposed to the natural inhibitor p16 (FIG. 25). When CDK4 or CDK6 is present, a decrease in activity was observed as Rb gets phosphorylated resulting in no Rb/E2F1-Dp-1 interaction. […] The data presented was a sample experiment where each condition was performed in triplicate and represented mean+SD.
The conditions of the assay were optimized by using different p16 amounts and cell numbers (FIGS. 25A and 25B). Based on the data generated, it was decided that using 0.2×10^6 cells/ml and 10 ng of p16 would be preferable.
To examine the ability of the assay to detect variants in CDKN2A that affect function, known loss of function mutants and unknown COSMIC mutants were created. Wild-type or mutated CDKN2A were prepared in a manner similar to that previously indicated. […] Therefore the p16 activity assay is capable of determining the relative activity level of p16 mutants. The data provided is in Luminescence (RLU) of a single experiment with each condition performed in triplicate and represent average+SD. Summary Table 13 reports p16 mutants tested.
In addition to check functional state of p16 mutants, p16 activity assay can be used to look at p16 inhibition response of different CDK4 and CDK6 mutants. Different response of WT CDK4 and CDK6 and hyperactive mutants of CDK4 (R24A) and CDK6 (R31C) is shown on FIG. 28. […] The p16 activity assay is so sensitive and specific that hyperactive CDK4 and CDK6 mutants can show different response to mutant p16.
As to B3, the “signal of p16 mutant (in words)” value is given as “close to the baseline”.

Consider B4, for which the “signal of p16 mutant (in words)” value is recorded as “close to the baseline”.
